pIC50: −log10 of the molar value.
What follows are compounds tested against T1, NaV1.8 (Homo sapiens, UniProt Q9Y5Y9) (assay: Whole-cell patch clamp blocking activity against NaV1.8 channel current). Conditions: CHO cell line stably expressing Nav1.8 (SCN10A: NM_006514), patch clamp.
T1 construct: expressed in transfected cells
Assay type: cell-based
Description: 1. Test method: patch clamp technique was used to detect the influence of compounds on voltage-gated sodium channel (NaV) 1.1-1.8 subtype current
1) The specific information of the CHO cell line stably expressing the Nav1.8 channel was as follows: SCN10A: NM_006514
2) Cells were cultured in HAM'S/F-12 medium containing 10% fetal bovine serum and 10 μg/mL Blasticidin, 200 μg/mL Hygromycin B and 100 μg/mL Zeocin, culture temperature was 37° C. and the concentration of CO2 was 5%.
5) Patch clamp detection, before the experiment, the cells were separated with 0.25%—trypsin EDTA, inoculated into a 24 well plate with a density of 8*10^3 cells per well (final volume: 500 μL), tetracycline was added thereto, and experimental test was performed on the next day.
1) Extracellular fluid: 140 mM NaCl, 3.5 mM KCl, 2 mM CaCl2, 10 mM HEPES, 1.25 mM NaH2PO4, 1 mM MgCl2, 10 mM Glucose, pH=7.4 (NaOH).
2) Intracellular fluid: 50 mM CsCl, 10 mM NaCl, 10 mM HEPES, 20 mM EGTA, 60 mM CsF, pH=7.2 (CsOH).
The voltage stimulation scheme of whole-cell patch clamp recording of Nav channel current was as follows: first the membrane potential of the cell was clamped at −130 mV, and then the voltage was stepped to −40 mV or −20 mV at 10 mv step intervals for 8 s. The clamping voltage was maintained at −120 mV, and data was collected repeatedly every 20 seconds. The peak amplitude of its inward current was measured to determine its half-inactivation voltage.
The cell clamping potential was set at −120 mV. The resting and half-inactivation inhibition of sodium current was measured using double pulse mode. The double pulse mode was completed by two 0 mV depolarization test pulses (TP1 and TP2) lasting 50 ms. The conditional voltage between the two depolarization pulses was set near the half-inactivation voltage (lasting 8 s). […] The data acquisition was repeated at an interval of 20 s and the current peak was measured at the two test pulses.
When the current of the Nav channel recorded by the whole cell was stable, the drug was administered, after each drug concentration was applied for 5 minutes (or the current was stable), the next concentration would be tested, and multiple concentrations would be tested for each test compound. The cover glass covered with cells was placed in the recording bath of an inverted microscope, the test compound and the external liquid without compound flowed through the recording chambers in turns from low concentration to high concentration by gravity perfusion, so as to act on the cells, in the recording, the liquid exchange was carried out by vacuum pump. The current detected in each cell in the compound-free external fluid served as its own control group. Multiple cells were detected independently and repeatedly. All electrophysiological experiments were performed at room temperature.
First, the current after the action of each drug concentration and the blank control current were normalized, and then the blocking rate corresponding to each drug concentration was calculated. The mean and standard error were calculated for each concentration, and all the above values were calculated by Microsoft Excel 2013. In addition, the half-inhibitory concentration of each compound was calculated by IGOR software with the following equation: retardation rate=1/[1+(IC50/c)^h].
The dose-dependent effect was nonlinearly fitted with the above equation, wherein, c refers to the drug concentration, IC50 was the half inhibitory concentration, and h refers to the Hill coefficient. The curve fitting and the calculation of IC50 were completed by IGOR software (software version: 6.0.1.0).

T1 sequence (Q9Y5Y9 whole entry): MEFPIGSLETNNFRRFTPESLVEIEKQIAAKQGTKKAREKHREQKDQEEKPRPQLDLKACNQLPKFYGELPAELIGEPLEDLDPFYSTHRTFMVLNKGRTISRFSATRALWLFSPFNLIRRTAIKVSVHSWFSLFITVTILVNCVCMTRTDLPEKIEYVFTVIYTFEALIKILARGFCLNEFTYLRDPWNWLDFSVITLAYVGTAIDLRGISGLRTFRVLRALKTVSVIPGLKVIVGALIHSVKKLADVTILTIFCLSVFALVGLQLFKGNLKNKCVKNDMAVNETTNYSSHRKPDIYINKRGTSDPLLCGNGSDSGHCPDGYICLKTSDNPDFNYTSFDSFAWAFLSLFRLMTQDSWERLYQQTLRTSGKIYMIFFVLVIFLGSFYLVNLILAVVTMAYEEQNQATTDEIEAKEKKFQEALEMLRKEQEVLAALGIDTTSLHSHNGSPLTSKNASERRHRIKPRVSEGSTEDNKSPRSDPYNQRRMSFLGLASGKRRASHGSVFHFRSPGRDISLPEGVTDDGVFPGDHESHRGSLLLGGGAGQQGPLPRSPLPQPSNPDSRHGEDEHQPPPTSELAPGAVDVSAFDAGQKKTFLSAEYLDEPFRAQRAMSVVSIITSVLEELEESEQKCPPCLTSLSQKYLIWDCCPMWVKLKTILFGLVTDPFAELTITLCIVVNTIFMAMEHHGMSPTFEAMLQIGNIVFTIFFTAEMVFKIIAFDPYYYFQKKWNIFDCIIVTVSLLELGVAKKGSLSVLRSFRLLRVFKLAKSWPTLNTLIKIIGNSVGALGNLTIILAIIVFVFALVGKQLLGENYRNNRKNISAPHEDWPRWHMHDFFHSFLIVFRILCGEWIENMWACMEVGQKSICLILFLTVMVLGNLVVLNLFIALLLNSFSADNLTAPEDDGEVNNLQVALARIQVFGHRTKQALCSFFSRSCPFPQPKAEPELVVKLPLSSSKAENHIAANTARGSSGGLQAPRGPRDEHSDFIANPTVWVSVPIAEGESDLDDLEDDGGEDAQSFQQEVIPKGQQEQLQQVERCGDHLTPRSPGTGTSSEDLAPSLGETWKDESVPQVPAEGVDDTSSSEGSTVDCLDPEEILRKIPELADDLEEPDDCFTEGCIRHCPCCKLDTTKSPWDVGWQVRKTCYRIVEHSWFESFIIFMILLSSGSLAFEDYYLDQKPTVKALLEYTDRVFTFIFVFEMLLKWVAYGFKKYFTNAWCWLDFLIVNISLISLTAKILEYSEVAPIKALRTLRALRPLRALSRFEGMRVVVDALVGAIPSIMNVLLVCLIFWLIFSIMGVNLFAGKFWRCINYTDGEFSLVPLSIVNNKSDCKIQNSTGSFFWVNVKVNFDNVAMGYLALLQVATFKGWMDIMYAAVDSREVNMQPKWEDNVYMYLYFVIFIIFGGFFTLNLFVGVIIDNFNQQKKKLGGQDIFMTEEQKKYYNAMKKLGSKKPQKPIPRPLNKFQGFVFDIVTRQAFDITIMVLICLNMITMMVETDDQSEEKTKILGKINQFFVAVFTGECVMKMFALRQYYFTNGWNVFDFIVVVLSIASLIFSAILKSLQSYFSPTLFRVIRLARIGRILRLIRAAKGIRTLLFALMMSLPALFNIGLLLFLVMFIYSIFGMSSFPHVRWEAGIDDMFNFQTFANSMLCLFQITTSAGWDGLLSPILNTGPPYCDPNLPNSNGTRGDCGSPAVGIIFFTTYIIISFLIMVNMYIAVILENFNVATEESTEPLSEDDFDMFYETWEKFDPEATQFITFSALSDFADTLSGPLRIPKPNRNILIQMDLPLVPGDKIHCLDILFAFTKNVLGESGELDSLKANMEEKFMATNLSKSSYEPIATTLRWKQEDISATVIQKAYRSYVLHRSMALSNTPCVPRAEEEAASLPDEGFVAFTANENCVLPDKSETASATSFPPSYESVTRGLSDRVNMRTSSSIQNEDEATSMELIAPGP

SMILES	pIC50
COc1cc(F)ccc1Oc1cc(Cl)c(Cl)cc1C(=O)Nc1ccc[n+]([O-])c1 [Embodiment A5]	8.13
O=C(Nc1ccc[n+]([O-])c1)c1c(Oc2ccc(OC(F)(F)F)cc2)cc(Cl)c(Cl)c1F [Embodiment A22]	9.49
O=C(Nc1cc[n+]([O-])nc1)c1c(Oc2ccc(OC(F)(F)F)cc2)ccc(C(F)(F)F)c1Cl [Embodiment A27]	9.19
O=C(Nc1ccn[n+]([O-])c1)c1c(Oc2ccc(OC(F)(F)F)cc2)ccc(C(F)(F)F)c1Cl [Embodiment A28]	8.54
O=C(Nc1cc[n+]([O-])nc1)c1c(Oc2ccc(OC(F)(F)F)cc2)ccc(Br)c1F [Embodiment A33]	8.34
O=C(Nc1cc[n+]([O-])nc1)c1cc(Cl)c(Cl)cc1Oc1ccc(OC(F)(F)F)cc1 [Embodiment A35]	8.52
O=C(Nc1cc[n+]([O-])nc1)c1cc(Cl)c(Cl)cc1Oc1ccc(OC(F)(F)F)c(F)c1 [Embodiment A37]	8.49
O=C(Nc1ccn[n+]([O-])c1)c1cc(Cl)c(Cl)cc1Oc1ccc(OC(F)(F)F)c(F)c1 [Embodiment A38]	8.14
O=C(Nc1ccc[n+]([O-])c1)c1c(Oc2ccc(OC(F)(F)F)cc2)ccc(I)c1F [Embodiment A73]	8.49
O=C(Nc1cc[n+]([O-])nc1)c1c(F)cc(C(F)(F)F)cc1Oc1ccc(OC(F)(F)F)cc1 [Embodiment A80]	8.08
COc1cc(F)ccc1Oc1cc(C(F)(F)F)c(Cl)cc1C(=O)Nc1ccc[n+]([O-])c1 [Embodiment A85]	8.77
COc1cc(F)ccc1Oc1cc(C(F)(F)F)c(Cl)c(F)c1C(=O)Nc1ccc[n+]([O-])c1 [Embodiment A86]	10.10

Further lines, results first:

pIC50	SMILES
8.00	O=C(Nc1ccc[n+](O)c1)c1c(Oc2ccc(OC(F)(F)F)cc2)ccc(OC(F)(F)F)c1F [Embodiment A19]
8.44	O=C(Nc1ccc[n+](O)c1)c1c(Oc2ccc(OC(F)(F)F)cc2)ccc(C(F)(F)F)c1F [Embodiment A42]
8.57	Cc1cc(OC(F)(F)F)ccc1Oc1ccc(C(F)(F)F)c(F)c1C(=O)Nc1ccc[n+](O)c1 [Embodiment A51]
8.74	O=C(Nc1ccc[n+](O)c1)c1c(Oc2ccc(OC(F)(F)F)cc2)ccc(C(F)(F)F)c1Cl [Embodiment A57]
7.99	O=C(Nc1cc[n+]([O-])nc1)c1c(Oc2ccc(OC(F)(F)F)cc2)cnc(C(F)(F)F)c1F [Embodiment A61]
8.46	O=C(Nc1ccc[n+](O)c1)c1c(Oc2ccc(OC(F)(F)F)cc2)ccc(Br)c1F [Embodiment A74]

Same assay, conditions: against NaV1.8 at 100 nM, CHO cell line stably expressing Nav1.8, patch clamp

SMILES	Blocking rate (%) @100 nM
Cc1cc(F)ccc1Oc1cc(S(F)(F)(F)(F)F)ccc1C(=O)Nc1ccc[n+]([O-])c1 [Embodiment A8]	81.85%
O=C(Nc1ccc[n+]([O-])c1)c1c(Oc2ccc(OC(F)F)cc2)ccc(C(F)(F)F)c1F [Embodiment A16]	85.08%
O=C(Nc1ccc[n+]([O-])c1)c1c(Oc2ccc(OC(F)(F)F)cc2)ccc(C(F)(F)C(F)(F)F)c1F [Embodiment A18]	96.02%
O=C(Nc1cc[n+]([O-])nc1)c1c(Oc2ccc(OC(F)(F)F)cc2)ccc(I)c1F [Embodiment A23]	97.04%
O=C(Nc1ccn[n+]([O-])c1)c1c(Oc2ccc(OC(F)(F)F)cc2)ccc(I)c1F [Embodiment A24]	91.28%
O=C(Nc1ccc[n+]([O-])c1)c1c(Cl)cc(C(F)(F)F)cc1Oc1ccc(OC(F)(F)F)cc1 [Embodiment A29]	87.63%
O=C(Nc1ccc[n+]([O-])c1)c1c(Oc2ccc(OCC(F)(F)F)cc2)ccc(Br)c1Cl [Embodiment A31]	88.88%
O=C(Nc1ccn[n+]([O-])c1)c1c(Oc2ccc(OC(F)(F)F)cc2)ccc(Br)c1F [Embodiment A34]	90.16%
O=C(Nc1ccn[n+]([O-])c1)c1cc(Cl)c(Cl)cc1Oc1ccc(OC(F)(F)F)cc1 [Embodiment A36]	87.40%
O=C(Nc1cc[n+]([O-])c(Cl)c1)c1c(Oc2ccc(OC(F)(F)F)cc2)ccc(C(F)(F)F)c1F [Embodiment A43]	76.10%
O=C(Nc1cc[n+]([O-])cc1)c1c(Oc2ccc(OC(F)(F)F)cc2)ccc(C(F)(F)F)c1F [Embodiment A44]	77.61%
O=C(Nc1ccc[n+]([O-])c1)c1c(Oc2ccc(F)cc2Cl)ccc(C(F)(F)F)c1F [Embodiment A50]	79.66%
O=C(Nc1cc[n+]([O-])nc1)c1c(Oc2ccc(OC(F)F)cc2)ccc(C(F)(F)F)c1F [Embodiment A72]	85.63%
O=C(Nc1ccc[n+]([O-])c1)c1c(Oc2ccc(OC(F)(F)F)cc2)ccc(Cl)c1F [Embodiment A75]	88.87%
Cc1cc(Oc2ccc(OC(F)(F)F)cc2)c(C(=O)Nc2ccc[n+]([O-])c2)cc1C(F)(F)F [Embodiment A90]	89.50%
O=C(Nc1ccc[n+]([O-])c1)c1cc(Cl)c(OC(F)(F)F)cc1Oc1ccc(OC(F)(F)F)cc1 [Embodiment A91]	92.81%
Cc1cc(Oc2ccc(OC(F)(F)F)cc2)c(C(=O)Nc2ccc[n+]([O-])c2)cc1Cl [Embodiment A92]	85.44%
O=C(Nc1ccc[n+]([O-])c1)c1cc(Cl)c(C2CC2)cc1Oc1ccc(OC(F)(F)F)cc1 [Embodiment A95]	93.84%
O=C(Nc1ccc[n+]([O-])c1)c1cc(Cl)c(Br)cc1Oc1ccc(OC(F)(F)F)cc1 [Embodiment A96]	88.78%

The remaining lines, values ahead:

Blocking rate (%) @100 nM	SMILES
87.14%	O=C(Nc1ccc[n+](O)c1)c1c(F)cc(OC(F)(F)F)cc1Oc1ccc(OC(F)(F)F)cc1 [Embodiment A20]
98.02%	O=C(Nc1ccc[n+](O)c1)c1c(Oc2ccc(OC(F)(F)F)c(F)c2)cc(Cl)c(Cl)c1F [Embodiment A21]
79.32%	O=C(Nc1cc[n+]([O-])nc1)c1ccc(C(F)(F)F)cc1Oc1ccc(OC(F)(F)F)c(F)c1 [Embodiment A26]
99.91%	O=C(Nc1ccc[n+]([O-])c1)c1c(Oc2ccc(OC(F)(F)F)cc2)cc(Cl)c(C(F)(F)F)c1F [Embodiment A40]
78.46%	O=C(Nc1ccn[n+]([O-])c1)c1c(Oc2ccc(OC(F)(F)F)cc2)ccc(C(F)(F)F)c1F [Embodiment A45]
80.75%	O=C(Nc1ccc[n+]([O-])c1)c1c(Oc2ccc(OC(F)(F)F)cc2F)ccc(C(F)(F)F)c1F [Embodiment A52]
85.77%	O=C(Nc1ccc[n+](O)c1)c1c(Oc2ccc(OCC(F)(F)F)cc2)ccc(C(F)(F)F)c1F [Embodiment A53]
94.99%	O=C(Nc1ccc[n+](O)c1)c1c(Oc2ccc(OC(F)(F)F)cc2Cl)ccc(C(F)(F)F)c1F [Embodiment A54]
87.57%	O=C(Nc1ccc[n+]([O-])c1)c1c(Oc2ccc(OC(F)(F)F)cc2)cnc(C(F)(F)F)c1F [Embodiment A59]
89.79%	O=C(Nc1ccc[n+](O)c1)c1c(Oc2ccc(OC(F)(F)F)c(F)c2)cnc(C(F)(F)F)c1F [Embodiment A62]
93.13%	O=C(Nc1ccc[n+]([O-])c1)c1c(Oc2ccc(OC(F)(F)F)cc2)cnc(C(F)(F)F)c1Cl [Embodiment A63]
93.18%	O=C(Nc1cc[n+]([O-])nc1)c1c(Oc2ccc(OC(F)(F)F)cc2)cnc(C(F)(F)F)c1Cl [Embodiment A65]
96.55%	COc1cc(Oc2ccc(OC(F)(F)F)cc2)c(C(=O)Nc2ccc[n+]([O-])c2)c(F)c1C(F)(F)F [Embodiment A78]
84.98%	O=C(Nc1cc[n+]([O-])nc1)c1c(Oc2ccc(OC(F)(F)F)c(F)c2)cnc(C(F)(F)F)c1F [Embodiment A83]

— patent US20230303495A9, “PYRIDINE OXYNITRIDE, PREPARATION METHOD THEREFOR AND USE THEREOF” (Orion Corporation, priority 2019, published 2023)
